# Values of other authors, collected in paper PMC11489133, “Obicetrapib exhibits favorable physiochemical and pharmacokinetic properties compared to previous cholesteryl ester transfer protein inhibitors: An integrated summary of results from non‐human primate studies and clinical trials” (Pharmacology Research & Perspectives, 2024).
# Like-named read-outs stand apart in the source and are kept apart here. Marks after values point to notes of the source that are not given here.
# Design: method as in PMID 24628035
# Conditions: cited from earlier work; for t ½ (terminal half‐life): arithmetic mean (CV%)
# [1] = single dose 5 mg, after a standard breakfast, geometric mean (CV%)
# [2] = single dose 10 mg, after a standard breakfast, geometric mean (CV%)
smiles,measurement,setting,value
CCOC(=O)N1c2ccc(C(F)(F)F)cc2C(N(Cc2cc(C(F)(F)F)cc(C(F)(F)F)c2)c2ncc(OCCCC(=O)O)cn2)CC1CC (stereo not shown) [Obicetrapib],t ½ (terminal half‐life),"multiple daily doses 5 mg, after the last dose",148 (30%) h
same,t max,"multiple daily doses 5 mg, after the last dose, median (minimum, maximum)","4 (3, 8) h"
same,C max,"multiple daily doses 5 mg, steady state, after the last dose, geometric mean (CV%)",436 (18%) ng/mL
same,"AUC (0, τ, ss)","multiple daily doses 5 mg, steady state, τ 24 h, geometric mean (CV%)",7606 (20%) ^f ng·h/mL
same,"Rac (accumulation ratio, AUC(0,τ,ss)/AUC(0–24 h))",multiple daily doses 5 mg,4.3 (1.1)
same,"Rac (accumulation ratio, AUC(0,τ,ss)/AUC(0–24 h))","multiple daily doses 5 mg, listed as obicetrapib",4.3
same,t ½ (terminal half‐life),"multiple daily doses 10 mg, after the last dose",131 (19%) h
same,t max,"multiple daily doses 10 mg, after the last dose, median (minimum, maximum)","6 (4, 8) h"
same,C max,"multiple daily doses 10 mg, steady state, after the last dose, geometric mean (CV%)",692 (23%) ng/mL
same,"Rac (accumulation ratio, AUC(0,τ,ss)/AUC(0–24 h))",multiple daily doses 10 mg,3.7 (0.8)
same,"Rac (accumulation ratio, AUC(0,τ,ss)/AUC(0–24 h))","multiple daily doses 10 mg, listed as obicetrapib",3.7
same,t ½ (terminal half‐life),"multiple daily doses 25 mg, after the last dose",121 (23%) h
same,t max,"multiple daily doses 25 mg, after the last dose, median (minimum, maximum)","4 (2, 6) h"
same,C max,"multiple daily doses 25 mg, steady state, after the last dose, geometric mean (CV%)",1398 (18%) ng/mL
same,"Rac (accumulation ratio, AUC(0,τ,ss)/AUC(0–24 h))",multiple daily doses 25 mg,2.1 (0.3)
same,"Rac (accumulation ratio, AUC(0,τ,ss)/AUC(0–24 h))","multiple daily doses 25 mg, listed as obicetrapib",2.1
same,t max,"multiple daily doses, all doses except 10 mg",4 h
same,obicetrapib in urine,"multiple doses, any participant",not detected
same,AUC (0–24 h),[1],1796 (14%) ng·h/mL
same,C max,[1],116 (13%) ng/mL
same,t max,"single dose 5 mg, after a standard breakfast, median (minimum, maximum)","6 (4, 8) h"
same,AUC (0–24 h),[2],3471 (18%) ng·h/mL
same,C max,[2],245 (14%) ng/mL
same,t max,"single dose 10 mg, after a standard breakfast, median (minimum, maximum)","6 (4, 8) h"
same,C max,"single dose 25 mg, after a standard breakfast, geometric mean (CV%)",750 (19%) ng/mL
same,t max,"single dose 25 mg, after a standard breakfast, median (minimum, maximum)","6 (3, 8) h"
same,t max,single dose regardless of the strength of the dose (1–25 mg),6 h
same,time in which plasma levels were approaching steady state,"visual inspection of trough concentrations, multiple once daily doses",within one to two weeks
